Like-named read-outs stand apart in the source and are kept apart here.
What was measured:
HDAC1 = HDAC1 (Homo sapiens (Human), UniProt Q13547); assay: HDAC inhibitory activity assay (as described in WO2008/062201), HDAC1; assay type: biochemical
HDAC6 = HDAC6 (Homo sapiens (Human), UniProt Q9UBN7); assay: HDAC inhibitory activity assay (as described in WO2008/062201), HDAC6; assay type: biochemical
[1] = Comparative mouse pharmacokinetics (oral bioavailability); details: in vivo, read-out: Oral bioavailability, F %
PC-3 = assay: In vitro cancer cell growth inhibition, PC-3; assay type: cell-based; details: Homo sapiens; PC-3 cancer cell growth inhibition
From the text: (§1) In Vitro Cancer Cell Growth Inhibition Data for Compound A

A549 = assay: In vitro cancer cell growth inhibition, A549; assay type: cell-based; details: Homo sapiens
From the text: as §1

[2] = class symbol, read-out: IC50, HDAC1
[3] = class symbol, read-out: IC50, HDAC6

HDAC6, sequence (Q9UBN7 whole entry, species assumed): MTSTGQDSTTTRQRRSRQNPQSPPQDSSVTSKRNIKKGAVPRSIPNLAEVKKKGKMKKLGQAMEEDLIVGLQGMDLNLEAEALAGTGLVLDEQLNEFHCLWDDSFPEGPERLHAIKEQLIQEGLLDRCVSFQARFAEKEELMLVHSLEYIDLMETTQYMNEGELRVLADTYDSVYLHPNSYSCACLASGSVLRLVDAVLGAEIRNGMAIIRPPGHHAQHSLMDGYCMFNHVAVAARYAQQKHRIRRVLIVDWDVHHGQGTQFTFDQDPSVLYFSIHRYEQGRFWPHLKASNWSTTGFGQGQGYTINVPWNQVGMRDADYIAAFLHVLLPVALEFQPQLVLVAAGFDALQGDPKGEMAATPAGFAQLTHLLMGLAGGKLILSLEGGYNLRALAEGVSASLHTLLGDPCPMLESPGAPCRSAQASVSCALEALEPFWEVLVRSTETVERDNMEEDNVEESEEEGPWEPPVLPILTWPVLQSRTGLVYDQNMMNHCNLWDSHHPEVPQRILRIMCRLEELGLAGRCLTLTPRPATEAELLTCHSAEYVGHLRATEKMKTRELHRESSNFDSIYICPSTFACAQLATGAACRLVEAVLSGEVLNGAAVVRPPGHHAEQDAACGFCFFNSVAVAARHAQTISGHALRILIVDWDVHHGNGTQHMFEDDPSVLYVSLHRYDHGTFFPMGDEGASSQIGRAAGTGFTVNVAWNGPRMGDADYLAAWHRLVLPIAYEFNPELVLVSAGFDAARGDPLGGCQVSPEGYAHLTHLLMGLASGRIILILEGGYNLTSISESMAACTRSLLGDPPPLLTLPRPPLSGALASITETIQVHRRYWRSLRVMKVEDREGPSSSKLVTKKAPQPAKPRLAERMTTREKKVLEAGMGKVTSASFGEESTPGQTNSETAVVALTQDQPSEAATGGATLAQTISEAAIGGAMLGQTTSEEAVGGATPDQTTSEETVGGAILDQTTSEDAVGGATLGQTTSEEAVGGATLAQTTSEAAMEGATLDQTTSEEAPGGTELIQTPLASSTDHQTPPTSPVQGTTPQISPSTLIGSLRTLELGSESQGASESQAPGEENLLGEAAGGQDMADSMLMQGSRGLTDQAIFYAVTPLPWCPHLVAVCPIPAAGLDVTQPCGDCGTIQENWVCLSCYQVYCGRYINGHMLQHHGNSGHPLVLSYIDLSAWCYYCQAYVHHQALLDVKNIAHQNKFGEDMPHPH
HDAC1, sequence (Q13547 whole entry, species assumed): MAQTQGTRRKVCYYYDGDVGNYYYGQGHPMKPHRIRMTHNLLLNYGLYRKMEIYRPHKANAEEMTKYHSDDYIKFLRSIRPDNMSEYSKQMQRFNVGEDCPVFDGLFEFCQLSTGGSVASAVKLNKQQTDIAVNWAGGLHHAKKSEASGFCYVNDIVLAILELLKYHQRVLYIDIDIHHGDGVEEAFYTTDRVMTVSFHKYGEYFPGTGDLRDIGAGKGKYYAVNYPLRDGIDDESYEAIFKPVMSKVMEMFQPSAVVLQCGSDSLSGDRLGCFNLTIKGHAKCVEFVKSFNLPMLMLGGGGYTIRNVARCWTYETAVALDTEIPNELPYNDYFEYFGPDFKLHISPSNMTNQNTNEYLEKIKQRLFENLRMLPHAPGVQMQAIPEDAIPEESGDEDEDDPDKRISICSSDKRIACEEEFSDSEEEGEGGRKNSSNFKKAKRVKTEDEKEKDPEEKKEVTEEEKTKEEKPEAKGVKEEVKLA

Row | Structure (SMILES) | IC50 (HDAC1; [2]) [nM] | IC50 (HDAC6; [3]) [nM] | also measured
1 | Cc1noc(N(CCCCCCCC(=O)NO)c2ccccn2)n1 [Example D, N-Hydroxy-8-((3-methyl-1,2,4-oxadiazol-5-yl)(pyridin-2-yl)amino)octanamide] | 1000 to 10000 | – | –
2 | O=C(CCCCCCCN(c1ccc(F)cn1)c1nc(C(F)(F)F)ns1)NO [Example HH, 8-((5-Fluoropyridin-2-yl)(3-(trifluoromethyl)1,2,4-thiadiazol-5-yl)amino)-N-hydroxyoctanamide] | 1000 to 10000 | < 500 | –
3 | O=C(CCCCCCN(c1ccc(F)cn1)c1nc(C(F)(F)F)ns1)NO [Example GG, 7-((5-Fluoropyridin-2-yl)(3-(trifluoromethyl)1,2,4-thiadiazol-5-yl)amino)-N-hydroxyheptanamide] | 500 to 1000 | < 500 | –
4 | Cn1c(N(CCCCCCCC(=O)NO)c2ccc(F)cn2)nc2ccccc21 [Example T, 8-((5-Fluoropyridin-2-yl)(1-methyl-1H-benzo[d]imidazol-2-yl)amino)-N-hydroxyoctanamide] | 1000 to 10000 | < 500 | –
5 | Cc1nsc(N(CCCCCCCC(=O)NO)c2cc(-c3ccc(F)cc3)ccn2)n1 [Example FF, 8-((4-(4-Fluorophenyl)-pyridin-2-yl)(3-methyl-1,2,4-thiadiazol-5-yl)amino)-N-hydroxyoctanamide] | 1000 to 10000 | < 500 | –
6 | O=C(CCCCCCCN(c1ccccn1)c1nccs1)NO [Example LL, N-Hydroxy-8-(pyridin-2-yl(thiazol-2-yl)amino)octanamide] | 1000 to 10000 | – | –
7 | Cc1nsc(N(CCCCCCC(=O)NO)c2cccnc2)n1 [Example B, N-Hydroxy-7-[(3-methyl-1,2,4-thiadiazol-5-yl)(pyridin-3-yl)amino]heptanamide] | < 500 | < 500 | –
8 | Cn1ccc(N(CCCCCCCC(=O)NO)c2cc(-c3ccc(F)cc3)ccn2)n1 [Example Z, 8-((4-(4-Fluorophenyl)pyridin-2-yl)(1-methyl-1H-pyrazol-3-yl)amino)-N-hydroxyoctanamide] | > 10000 | < 500 | –
9 | Cc1nsc(N(CCCCCCC(=O)NO)c2cc(-c3ccc(F)cc3)ccn2)n1 [Example EE, 7-((4-(4-Fluorophenyl)pyridin-2-yl)(3-methyl-1,2,4-thiadiazol-5-yl)amino)-N-hydroxyheptanamide] | 1000 to 10000 | < 500 | –
10 | O=C(CCCCCCN(c1ccc(F)cn1)c1nc2ccccc2o1)NO [Example W, 7-(Benzo[d]oxazol-2-yl(5-fluoropyridin-2-yl)amino)-N-hydroxyheptanamide] | 1000 to 10000 | < 500 | –
11 | O=C(CCCCCCCN(c1ccccn1)c1ncns1)NO [Example P, N-Hydroxy-8-(pyridin-2-yl(1,2,4-thiadiazol-5-yl)amino)octanamide] | 1000 to 10000 | – | –
12 | O=C(CCCCCCN(c1ccccn1)c1nc(C(F)(F)F)ns1)NO [Example AA] | 1000 to 10000 | – | –
13 | Cn1c(N(CCCCCCC(=O)NO)c2ccccn2)nc2ccccc21 [Example M, N-Hydroxy-7-((1-methyl-1H-benzo[d]imidazol-2-yl)(pyridin-2-yl)amino)heptanamide] | 1000 to 10000 | – | –
14 | O=C(CCCCCCN(c1ccccn1)c1nccs1)NO [Example KK, N-Hydroxy-7-(pyridin-2-yl(thiazol-2-yl)amino)heptanamide] | 1000 to 10000 | – | –
15 | Cn1c(N(CCCCCCC(=O)NO)c2ccc(F)cn2)nc2ccccc21 [Example S, 7-((5-Fluoropyridin-2-yl)(1-methyl-1H-benzo[d]imidazol-2-yl)amino)-N-hydroxyheptanamide] | 500 to 1000 | < 500 | –
16 | Cn1ccc(N(CCCCCCCC(=O)NO)c2ccc(F)cn2)n1 [Example V, 8-((5-Fluoropyridin-2-yl)(1-methyl-1H-pyrazol-3-yl)amino)-N-hydroxyoctanamide] | > 10000 | < 500 | –
17 | Cc1nsc(N(CCCCCCCC(=O)NO)c2ccc(F)cn2)n1 [Example DD, 8-((5-Fluoropyridin-2-yl)(3-methyl-1,2,4-thiadiazol-5-yl)amino)-N-hydroxyoctanamide] | 1000 to 10000 | < 500 | –
18 | Cc1nsc(N(CCCCCCC(=O)NO)c2ccccn2)n1 [Example A, N-Hydroxy-7-[(3-methyl-1,2,4-thiadiazol-5-yl)(pyridin-2-yl)amino]heptanamide] | – | – | IC50 (HDAC6): < 500 nM; IC50 (HDAC6; numeric value, read-out: IC50, HDAC6): 1.76 nM; bioavailability [1]: 19%; IC50 (PC-3): 2.32 µM; IC50 (A549): 1.89 µM; IC50 (HDAC1): < 500 nM; IC50 (HDAC1; numeric value, read-out: IC50, HDAC1): 226 nM
19 | Cc1nnc(N(CCCCCCCC(=O)NO)c2ccccn2)s1 [Example J, N-Hydroxy-8-((5-methyl-1,3,4-thiadiazol-2-yl)(pyridin-2-yl)amino)octanamide] | 1000 to 10000 | – | –
20 | O=C(CCCCCCCN(c1ccc(F)cn1)c1nc2ccccc2o1)NO [Example X, 8-(Benzo[d]oxazol-2-yl(5-fluoropyridin-2-yl)amino)-N-hydroxyoctanamide] | 1000 to 10000 | < 500 | –
21 | Cc1noc(N(CCCCCCCC(=O)NO)c2ccc(F)cn2)n1 [Example R, 8-((5-Fluoropyridin-2-yl)(3-methyl-1,2,4-oxadiazol-5-yl)amino)-N-hydroxyoctanamide] | 1000 to 10000 | < 500 | –
22 | Cn1ccc(N(CCCCCCC(=O)NO)c2ccc(F)cn2)n1 [Example U, 7-((5-Fluoropyridin-2-yl)(1-methyl-1H-pyrazol-3-yl)amino)-N-hydroxyheptanamide] | 1000 to 10000 | < 500 | –
23 | Cc1nnc(N(CCCCCCC(=O)NO)c2ccccn2)s1 [Example I, N-Hydroxy-7-((5-methyl-1,3,4-thiadiazol-2-yl)(pyridin-2-yl)amino)heptanamide] | 500 to 1000 | – | –
24 | Cn1ccc(N(CCCCCCC(=O)NO)c2cc(-c3ccc(F)cc3)ccn2)n1 [Example Y, 7-((4-(4-Fluorophenyl)pyridin-2-yl)(1-methyl-1H-pyrazol-3-yl)amino)-N-hydroxyheptanamide] | < 500 | < 500 | –
25 | Cc1nsc(N(CCCCCCC(=O)NO)c2ccc(F)cn2)n1 [Example CC, 7-((5-Fluoropyridin-2-yl)(3-methyl-1,2,4-thiadiazol-5-yl)amino)-N-hydroxyheptanamide] | 500 to 1000 | < 500 | –
26 | Cc1noc(N(CCCCCCC(=O)NO)c2ccc(F)cn2)n1 [Example Q, 7-((5-Fluoropyridin-2-yl)(3-methyl-1,2,4-oxadiazol-5-yl)amino)-N-hydroxyheptanamide] | > 10000 | < 500 | –
27 | O=C(CCCCCCN(c1ccccn1)c1ncns1)NO [Example O, N-Hydroxy-7-(pyridin-2-yl(1,2,4-thiadiazol-5-yl)amino)heptanamide] | 500 to 1000 | – | –
28 | O=C(CCCCCCCN(c1ccccn1)c1nncs1)NO [Example H, N-Hydroxy-8-(pyridin-2-yl(1,3,4-thiadiazol-2-yl)amino)octanamide] | 1000 to 10000 | – | –

Source: patent publication US10150763B2, “Histone deacetylase inhibitors and their use in therapy” (Karus Therapeutics Limited, priority 2012, dated 2018)
